Measured values taken from BindingDB's records for doi:10.1016/j.bmcl.2003.10.011 (University of Hamburg, 2003).

Molecular target: Alpha-galactosidase (Aspergillus niger)
Assay: Compound tested for inhibition of alpha-galactosidase from Aspergillus niger

Ki [µM] | SMILES
300 | C[C@@H](OC[C@H]1O[C@@H](O)[C@H](O)[C@H](O)[C@@H]1O)[C@H](N)C(=O)O [2-(R)-Amino-3-(3,4,5,6-tetrahydroxy-tetrahydro-pyran-2-ylmethoxy)-butyric acid]
400 | N[C@@H](COC[C@H]1O[C@@H](O)[C@H](O)[C@H](O)[C@@H]1O)C(=O)O [2-Amino-3-(3,4,5,6-tetrahydroxy-tetrahydro-pyran-2-ylmethoxy)-propionic acid]
